Experimental data reported in the supplement of paper PMC4932681.
Where a name gives a salt, the structure may show the parent alone.

Legend:
T-47D [1] = assay: relative IC50 (midpoint of fitted logistic curve, plateau may be below 50% inhibition; CellTiter-Glo viability); higher = less potent; details: 72 h
How it was run: (§1)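 Breast cancer cell lines and their resistant derivatives were seeded into 384-well plates containing library drugs at five concentrations across a 10 000-fold range, with resistant lines kept in medium with 1 μM of the selecting drug. After 72 h at 37 °C, CellTiter-Glo viability was read on a PHERAstar and normalised to vehicle-only and positive controls. Logistic dose–response fits in the Breeze pipeline gave drug sensitivity score, relative IC50 (curve midpoint) and top-dose inhibition.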

MCF-7 Tam1 [2] = assay: as above; details: 4-OH-tamoxifen in medium 1 µM; 72 h
How it was run: as §1

ZR-75-1 [3] = assay: as above; details: 72 h
How it was run: as §1

BT-474 Tam2 [4] = assay: as above; details: 4-OH-tamoxifen in medium 1 µM; 72 h
How it was run: as §1

BT-474 Tam1 [5] = assay: as above; details: 4-OH-tamoxifen in medium 1 µM; 72 h
How it was run: as §1

T-47D Tam2 [6] = assay: as above; details: 4-OH-tamoxifen in medium 1 µM; 72 h
How it was run: as §1

ZR-75-1 Tam2 [7] = assay: as above; details: 4-OH-tamoxifen in medium 1 µM; 72 h
How it was run: as §1

ZR-75-1 Tam1 [8] = assay: as above; details: 4-OH-tamoxifen in medium 1 µM; 72 h
How it was run: as §1

BT-474 [9] = assay: as above; details: 72 h
How it was run: as §1

MCF-7 [10] = assay: as above; details: 72 h
How it was run: as §1

T-47D Tam1 [11] = assay: as above; details: 4-OH-tamoxifen in medium 1 µM; 72 h
How it was run: as §1

T-47D [12] = assay: drug sensitivity score (DSS) (DSS (dimensionless)); higher = more sensitive; extreme values may be limits of the assay; details: 72 h
How it was run: as §1

MCF-7 Tam1 [13] = assay: as above; details: 4-OH-tamoxifen in medium 1 µM; 72 h
How it was run: as §1

ZR-75-1 [14] = assay: as above; details: 72 h
How it was run: as §1

BT-474 Tam2 [15] = assay: as above; details: 4-OH-tamoxifen in medium 1 µM; 72 h
How it was run: as §1

BT-474 Tam1 [16] = assay: as above; details: 4-OH-tamoxifen in medium 1 µM; 72 h
How it was run: as §1

T-47D Tam2 [17] = assay: as above; details: 4-OH-tamoxifen in medium 1 µM; 72 h
How it was run: as §1

ZR-75-1 Tam2 [18] = assay: as above; details: 4-OH-tamoxifen in medium 1 µM; 72 h
How it was run: as §1

ZR-75-1 Tam1 [19] = assay: as above; details: 4-OH-tamoxifen in medium 1 µM; 72 h
How it was run: as §1

BT-474 [20] = assay: as above; details: 72 h
How it was run: as §1

MCF-7 [21] = assay: as above; details: 72 h
How it was run: as §1

T-47D Tam1 [22] = assay: as above; details: 4-OH-tamoxifen in medium 1 µM; 72 h
How it was run: as §1

Row | SMILES | relative IC50 (T-47D [1]; 4-OH-tamoxifen in medium 0 µM) [µM] | relative IC50 (T-47D [1]; 4-OH-tamoxifen in medium 1 µM) [µM] | relative IC50 (MCF-7 Tam1 [2]) [µM] | relative IC50 (BT-474 Tam2 [4]) [µM] | relative IC50 (BT-474 Tam1 [5]) [µM] | relative IC50 (T-47D Tam2 [6]) [µM] | relative IC50 (BT-474 [9]; 4-OH-tamoxifen in medium 0 µM) [µM] | relative IC50 (BT-474 [9]; 4-OH-tamoxifen in medium 1 µM) [µM] | relative IC50 (MCF-7 [10]; 4-OH-tamoxifen in medium 0 µM) [µM] | relative IC50 (MCF-7 [10]; 4-OH-tamoxifen in medium 1 µM) [µM] | relative IC50 (T-47D Tam1 [11]) [µM] | relative IC50 (ZR-75-1 [3]; 4-OH-tamoxifen in medium 0 µM) [µM] | relative IC50 (ZR-75-1 [3]; 4-OH-tamoxifen in medium 1 µM) [µM] | relative IC50 (ZR-75-1 Tam2 [7]) [µM] | relative IC50 (ZR-75-1 Tam1 [8]) [µM] | drug sensitivity score (T-47D [12]; 4-OH-tamoxifen in medium 0 µM) | drug sensitivity score (T-47D [12]; 4-OH-tamoxifen in medium 1 µM) | drug sensitivity score (MCF-7 Tam1 [13]) | drug sensitivity score (ZR-75-1 [14]; 4-OH-tamoxifen in medium 0 µM) | drug sensitivity score (ZR-75-1 [14]; 4-OH-tamoxifen in medium 1 µM) | drug sensitivity score (BT-474 Tam2 [15]) | drug sensitivity score (BT-474 Tam1 [16]) | drug sensitivity score (T-47D Tam2 [17]) | drug sensitivity score (ZR-75-1 Tam2 [18]) | drug sensitivity score (ZR-75-1 Tam1 [19]) | drug sensitivity score (BT-474 [20]; 4-OH-tamoxifen in medium 0 µM) | drug sensitivity score (BT-474 [20]; 4-OH-tamoxifen in medium 1 µM) | drug sensitivity score (MCF-7 [21]; 4-OH-tamoxifen in medium 0 µM) | drug sensitivity score (MCF-7 [21]; 4-OH-tamoxifen in medium 1 µM) | drug sensitivity score (T-47D Tam1 [22])
1 | Cc1ccc([N+](=O)[O-])cc1S(=O)(=O)N(C)/N=C/c1cnc2ccc(Br)cn12 [PIK-75 (HCl)] | 0.0332 | 0.0813 | 0.0505 | 0.0587 | 0.0316 | 0.0826 | 0.148 | 0.0486 | 0.0332 | 0.0305 | 0.0483 | 0.133 | 0.0945 | 0.108 | 0.309 | 21.8 | 15.3 | 22.6 | 16.9 | 16.7 | 26.8 | 29.8 | 20.5 | 18.9 | 14.9 | 21.2 | 27.2 | 22.3 | 26.4 | 25.1
2 | COC(=O)C[C@](O)(CCCC(C)(C)O)C(=O)O[C@@H]1C(OC)=C[C@]23CCCN2CCc2cc4c(cc2[C@H]13)OCO4 [Omacetaxine (Homoharringtonine)] | 0.138 | 0.172 | 0.0822 | 1.78 | 2.99 | 0.419 |  | 1.89 | 0.029 | 0.0167 | 0.0937 | 0.0372 | 0.0465 | 0.0922 | 0.0844 | 17.4 | 11 | 16.2 | 19 | 15.2 | 6.34 | 4.82 | 10.7 | 17.8 | 13.8 | 6.72 | 6.25 | 25.1 | 26.1 | 16.4
3 | NCCCNCCSP(=O)(O)O [Amifostine] | > 10 | > 10 | > 10 | > 10 | > 10 | > 10 | > 10 | > 10 | > 10 | > 10 | > 10 | > 10 | > 10 | > 10 | > 10 | 0 | 0 | 0 | 0 | 0 | 0 | 0 | 0 | 0 | 0 | 0 | 0 | 0 | 0 | 0
4 | NCC(=O)CCC(=O)O [Aminolevulinic acid] | > 10 | > 10 | > 10 | > 10 | > 10 | > 10 | > 10 | > 10 | > 10 |  | > 10 | > 10 | > 10 | > 10 | > 10 | 0 | 0 | 0 | 0 | 0 | 0 | 0 | 0 | 0 | 0 | 0 | 0 | 0 | 0.809 | 0

Further lines, with some results ahead:

Row | relative IC50 (T-47D [1]; 4-OH-tamoxifen in medium 0 µM) [µM] | relative IC50 (T-47D [1]; 4-OH-tamoxifen in medium 1 µM) [µM] | relative IC50 (MCF-7 Tam1 [2]) [µM] | relative IC50 (BT-474 Tam2 [4]) [µM] | relative IC50 (BT-474 Tam1 [5]) [µM] | relative IC50 (T-47D Tam2 [6]) [µM] | relative IC50 (BT-474 [9]; 4-OH-tamoxifen in medium 0 µM) [µM] | relative IC50 (BT-474 [9]; 4-OH-tamoxifen in medium 1 µM) [µM] | relative IC50 (MCF-7 [10]; 4-OH-tamoxifen in medium 0 µM) [µM] | relative IC50 (MCF-7 [10]; 4-OH-tamoxifen in medium 1 µM) [µM] | relative IC50 (T-47D Tam1 [11]) [µM] | SMILES | relative IC50 (ZR-75-1 [3]; 4-OH-tamoxifen in medium 0 µM) [µM] | relative IC50 (ZR-75-1 [3]; 4-OH-tamoxifen in medium 1 µM) [µM] | relative IC50 (ZR-75-1 Tam2 [7]) [µM] | relative IC50 (ZR-75-1 Tam1 [8]) [µM] | drug sensitivity score (T-47D [12]; 4-OH-tamoxifen in medium 0 µM) | drug sensitivity score (T-47D [12]; 4-OH-tamoxifen in medium 1 µM) | drug sensitivity score (MCF-7 Tam1 [13]) | drug sensitivity score (ZR-75-1 [14]; 4-OH-tamoxifen in medium 0 µM) | drug sensitivity score (ZR-75-1 [14]; 4-OH-tamoxifen in medium 1 µM) | drug sensitivity score (BT-474 Tam2 [15]) | drug sensitivity score (BT-474 Tam1 [16]) | drug sensitivity score (T-47D Tam2 [17]) | drug sensitivity score (ZR-75-1 Tam2 [18]) | drug sensitivity score (ZR-75-1 Tam1 [19]) | drug sensitivity score (BT-474 [20]; 4-OH-tamoxifen in medium 0 µM) | drug sensitivity score (BT-474 [20]; 4-OH-tamoxifen in medium 1 µM) | drug sensitivity score (MCF-7 [21]; 4-OH-tamoxifen in medium 0 µM) | drug sensitivity score (MCF-7 [21]; 4-OH-tamoxifen in medium 1 µM) | drug sensitivity score (T-47D Tam1 [22])
5 | 0.00587 | 0.0197 | 0.00912 | 0.00703 | 0.00207 | 0.0153 | 0.0151 | 0.00569 | 0.00597 | 0.00841 | 0.00399 | COc1ncc(-c2ccc3nccc(-c4ccnnc4)c3c2)cc1NS(=O)(=O)c1ccc(F)cc1F | 0.00756 | 0.0107 | 0.0107 | 0.0104 | 19.3 | 15.6 | 13.1 | 19.3 | 16.3 | 25 | 31 | 15.7 | 19.4 | 18.6 | 18.5 | 25.9 | 18.1 | 19.8 | 22.4
6 | > 10 | > 10 | > 10 | > 10 | > 10 | > 10 | > 10 | > 10 | > 10 | > 10 | > 10 | N#CC[C@H](C1CCCC1)n1cc(-c2ncnc3[nH]ccc23)cn1 | > 10 | > 10 | > 10 | > 10 | 0 | 0 | 0 | 0 | 0 | 0 | 0 | 0 | 0 | 0 | 0 | 0 | 0 | 0 | 0
7 | > 10 | > 10 | > 10 | > 10 | > 10 | > 10 | > 10 | > 10 | > 10 | > 10 | > 10 | c1ccc([C@H]2CN3CCSC3=N2)cc1 [Levamisole, (Tetramisole hydrochloride)] | > 10 | > 10 | > 10 | > 10 | 0 | 0 | 0 | 0 | 0 | 0 | 0 | 0 | 0 | 0 | 0 | 0 | 0 | 0 | 0
